Data on 1 molecule can be found in PMC10386886, “First-in-class multifunctional TYMS nonclassical antifolate inhibitor with potent in vivo activity that prolongs survival” (JCI Insight, 2023).

Data set [1] can be described thus: in vivo. Conditions: FVB/129/Sv, mouse, ip.
Protocol: Animals received 4 treatment cycles and were then monitored once off treatment until survival endpoint.
Maximum tolerated dose (MTD)
(§3) experiment) or 5, 10, 25 or 50 mg/kg of 5-FU daily during 5 consecutive days. After 3 treatment cycles,
(§4) animals rested (no treatment) for one more week before euthanasia. Body weight and physical status
(§5) of all mice were closely monitored. Tissues were collected and fixed in alcoholic formalin to test for
(§6) daily during 5 consecutive days for 3 weeks. After 3 treatment cycles, animals rested (no treatment) for
(§7) one more week before euthanasia. Body weight and physical status of all mice were closely monitored.
(§8) Tissues were collected and fixed in alcoholic formalin to test for toxicity.
(§9) Specimens were fixed in alcoholic formalin for 48h and then transferred to 70% ethanol, processed and
(§10) embedded in paraffin. Tissues were serially sectioned and stained by conventional H&E. Slides were
In the next data set the test system is CM cells. Description: MTS viability assay, CM. The format is cell-based. Conditions: 72-hour drug incubation, Figure 1C.
The test system of the next data set is MIA PaCa-2 cells. Description: MTS viability assay, MIA PaCa-2. Conditions: Homo sapiens, 72-hour drug incubation, Figure 1C. The format is cell-based. The method, then: (§1) Cells were harvested after 72 hours, and cell pellets were stored at –80°C. […] After 72 hours, cell viability was assessed by reduction of MTS using Cell Titer 96 R Aqueous One Solution Cell Proliferation Assay Kit (Promega, catalog G8081), following manufacturer’s recommendations. […] was measured on a SpectraMax M3 (Molecular Devices). Data were plotted in GraphPad Prism 9 to determine GI50 concentration. Chemical synthesis details, including characterization of each compound, can be found in the Supplemental section associated with this publication.

Data set [2] relates to PANC-1 and MIA PaCa-2 cells. Description: Cell count assay for acquired resistance. The format is cell-based. Conditions: constant 10 μM.
Protocol: 500000 PANC-1 and MiaPaCa- 2 cells were plated in 75 cm2 flasks in DMEM high glucose
supplemented with 5 U/ml Penicillin/Streptomycin and 10% fetal bovine serum. Cells were treated with
Once a week for 7 weeks, cells were trypsinized with Trypsin-
EDTA 0.05% (Gibco) and counted using Cellometer Auto T4 (Nexcelom Bioscience). 500000 cells were
re-seeded in a new 75 cm2 flask in the appropriate treatment. Data was plotted in GraphPad Prism 9.
In another data set the test system is PANC-1 cells. Description: MTS viability assay, PANC-1. The format is cell-based. Conditions: Homo sapiens, 72-hour drug incubation, Figure 1C.
For data set [3], the system named is H1048 small cell lung cancer cell line. Description: Viability assay, H1048. In kind it is cell-based. The settings on record: Homo sapiens, NCI-H1048; Supplemental Figure 1B.
Protocol: H1048, Colo320, H630 and CCD18Co cells were purchased from ATCC. Cells were grown in RPMI
1640 supplemented with 5 U/ml Penicillin/Streptomycin and 10% fetal bovine serum at a constant
temperature of 37 °C in a humidified atmosphere of 5% carbon dioxide and were routinely tested for
mycoplasma contamination.
For GI50 determination, 3000 Colo320, H630 and CCD18Co cells per well were plated in 96 well plates
hours, cell viability was assessed by reduction of MTT (3-(4,5- dimethylthiazol-2-yl)-2,5-diphenyltetrazolium bromide) using MTT Reagent (Invitrogen, Cat # M6494), following manufacturer’s
recommendations. Chemiluminescent output (integration time 1000 ms) was measured on a
SpectraMax M3 (Molecular Devices). Data was plotted in GraphPad Prism 9 to determine GI50
Data set [4] is described as follows: in vivo. The settings on record: NSG, mouse, ip.
Protocol: Maximum tolerated dose (MTD)
as §3, §4, §5, §6, §7, §8, §9, §10
Data set [5] concerns TYMS. Description: TYMS levels in Luc-PANC-1 xenograft tumors (immunoblot). The format is in vivo, mouse. Conditions: 25 mg/kg daily IP, 5 consecutive days. The source says:
(§2) In the subcutaneous tumor model, the resulting Luc-PANC-1 xenograft tumors were monitored by direct tumor measurements and bioluminescence photon flux that is proportional to tumor size. […] Treatment was initiated 30 days after Luc-PANC-1 cell line subcutaneous injections (5 × 10^6 cells), when tumors reached 100 mm^3 in volume, generating a bioluminescence photon flux of 3 × 10^9 to 4 × 10^9 photons/s. […] Tumors from both treatment groups were excised, and the tumor mass was weighed (Figure 2E).
A small piece of frozen tumor (stored at -80 °C) in RIPA buffer with phosphatase and proteinase inhibitors (Santa Cruz, sc-24948) was homogenized using Omni general laboratory homogenizer (GLH). Tumor was then centrifuged for 20 min at 12000 rpm and 4 °C to obtain whole -cell lysates that was transferred to a new tube. Protein concentration was measured using Bradford Assay and 20 µg of total protein lysate was loaded as described in Methods.
Tritium based TYMS catalytic activity assay
The catalytic activity of TYMS was determined by measuring the release of [3H] from [5-3H]dUMP (ViTrax, Cat # VT122) resulting from the conversion of dUMP to dTMP as previously described (2, 3).
The reaction conditions were optimized to determine the amount of TYMS protein needed to establish […]

Data set [6] has as its system Luc-PANC-1 xenograft tumors. Description: Luc-PANC-1 subcutaneous xenograft tumor model. In kind it is in vivo. Conditions: 19-S vs 5-FU comparison, Supplemental Figure 6.
Text: as §2
Luc-PANC-1 (5 × 10^6) and Luc-CM (0.5 × 10^6) cells were resuspended in 200 μL of PBS and injected subcutaneously or IP, respectively, into 6- to 8-week-old NSG mice. Tumor-bearing mice were imaged using Xenogen IVIS Lumina Bioluminescence Imaging System (PerkinElmer) every week after cell injection. […] For all animals, body weight was recorded weekly, and Luc-PANC-1 tumor volume was measured weekly with a caliper. For scheduled sacrifice experiments, animals were euthanized after 4 weeks of treatment. […] Tumor volume was calculated as volume = 0.52(length × width^2).
Prior to bioluminescence imaging the region where tumors were located was shaved. […] Following the injection of the D-luciferin substrate mice, were imaged using the Xenogen IVIS Lumina Bioluminescence Imaging System (PerkinElmer). The peak of luciferase photon flux was recorded 6 minutes after injection of the D-luciferin substrate. The total photon flux was analyzed and restricted to tumor region of interest using Living Image v2.60.1 software (Imaging Systems).

The test system of data set [7] is TYMS. Description: Immunoblot of TYMS levels in treated PANC-1 cells. The format is cell-based. The settings on record: PANC-1, 72 hours, Figure 1D. As for the experimental part:
as §1
A total of 20 μg of total protein lysate was loaded per lane of 10% Tris Glycine Gel (Invitrogen, catalog EC6076). SDS-PAGE was run at 150 V for 1.5 to 2 hours. Proteins were transferred to nitrocellulose membranes using iBlot (Invitrogen, catalog IB3011002). Membranes were blocked with 5% nonfat dry milk (Lab Scientific, catalog M0841) in Tris-buffered saline supplemented with Tween 20 (0.1%) (TBS-T) for 45–60 minutes at room temperature (RT). […] Signal was detected using West Pico Plus chemiluminescence substrate (Thermo Fisher Scientific, catalog 34580) following manufacturer’s recommendations. […] For protein-level quantification relative to loading control, densitometric analysis was performed by ImageJ software (NIH).

The subject of data set [8] is 5-FU-resistant PANC-1 cells. Description: Clonability assay in 5-FU-resistant PANC-1 cells. The format is cell-based. Conditions: 8.35 μM 19-S or 6.5 μM 5-FU, 21 days.
Protocol: 500 PANC- 1 cells resistant to 6.5 µM 5-FU cells were seeded in 6 well plates by triplicate in media
After 21 days, cells were washed with PBS, fixed with Methanol for 20 minutes and stained with
1% Crystal violet (in PBS) for 20 minutes. After extensive washing, plates were let dry and colonies
were counted and plotted in GraphPad Prism 9. Images were taken using scanner Epson Perfection
For a further data set, the system named is BON cells. Description: MTS viability assay, BON. The settings on record: 72-hour drug incubation, Figure 1C. The format is cell-based.

Each structure is given as a SMILES string.

`O=c1[nH]cc(F)c(=O)[nH]1` [Compound 5-FU, 5-fluorouracil]: the MTD at 3 treatment cycles (5 consecutive days of daily dosing each) in “in vivo [1]” and in the data set “in vivo [4]” was 25 mg/kg in each case. In addition, the GI50 is 14.8 µM with CM cells; 20.4 µM in the data set on MIA PaCa-2 cells; 15.7 µM with PANC-1 cells; 3.63 µM in [3]; 7.47 µM in the data set on BON cells. For the same molecule, the “Effect on cell counts after 1 week” value in data set [2] is “potent cytotoxic effect”. In data set [2], the “Viable cells after 4 weeks of treatment” value was “remained detectible”. Besides, the “TYMS protein level in tumors” value in the data set on TYMS [5] is reported as “higher than TYMS protein level in vehicle-treated controls”. Further, the “Tumor volume compared with control mice” value in data set [6] is “significant reduction in tumor volume”. In addition, in the data set on TYMS [7], the “TYMS protein expression after treatment” value is reported as 3 fold. In data set [8], the Colony formation entry is “colonies were observed”. This molecule also showed an IC50 in the data set with BON cells of 7.1 µM.
